# From patent publication US20240277682A1, “PHARMACEUTICAL HYDRONIDONE FORMULATIONS FOR DISEASES” (Gyre Therapeutics, Inc., priority 2021, published 2024)
# Test: In vitro drug-drug interaction with Entecavir and Lamivudine in human liver microsomes
# Conditions: each 1.5 mM, P>0.05
# Method: Entecavir and Lamivudine, were used concomitantly with Hydronidone, or individually, in the in vitro drug interaction experiments, in respective concentrations of each of 1.5 mM.
compound,measurement,value
"Nc1ccn([C@@H]2CS[C@H](CO)O2)c(=O)n1 [lamivudine, reference compound]","drug interactions with Hydronidone (residual drug concentrations, individual vs combined medication groups)",do not exhibit drug interactions with Hydronidone
